The text below walks through data of patent publication US20250134878A1, “COMBINATION OF CHEK1 INHIBITOR AND TOP1 INHIBITOR FOR TREATING COLORECTAL CANCER” (Genome Research Limited, priority 2022, published 2025).

Data set [1] concerns colon (n=45) cancer cell lines. Briefly: anchored 2x7 combination screen, viability by CellTiter-Glo after 72 h, synergy over Bliss.
Description: To screen efficiently, the inventors used a 2×7 concentration matrix, or “anchored” approach. The inventors screened each anchor compound at two optimised concentrations and a discontinuous 1,000-fold (7-point) dose-response curve of the library compound. Viability was read out after 72 h of drug treatment using CellTiter-Glo and drug responses for single agent and combination responses were fitted.
The synergy and activity rate also subset to MSS (n=30) and MSI (n=15), or KRAS mut (n=24) and KRAS wt (n=21) cell lines.
Activity in MSI (n=15) and MSS (n=30) cell lines was compared (FIG. 1a). KRAS mutant (n=24) cell lines were investigated (n=8, TP53 wild type; n=16 TP53 mutant) (FIG. 1b). […] Plotted are averaged combination responses. Box and whisker plots show the median and interquartile range. A two-sided Welch's t-test was performed (*=p≤0.05, **=p≤0.01, ***=p≤0.001, ****=p≤0.0001).
Viability was read out after 72 h of drug treatment using CellTiter-Glo and drug responses for single agent and combination responses were fitted.
Data set [2] deals with SW620, SW837, SNU-81 or LS-1034 cells. Kind of data set: CHEK specificity: camptothecin anchor plus CHEK inhibitor libraries, CellTiter-Glo viability after 96 h. The class given is cell-based. The following applies: in combination with camptothecin (anchor, 0.025 µM), 4 cell lines. Here is the method: After 96 h of drug treatment viability was measured with CellTiter-Glo® 2.0 (CTG; Promega). Drug response curves were fitted and combination response metrics ΔEmax and ΔIC50 calculated by comparing the observed combination response with the expected (Bliss) combination response. The higher the ΔEmax and ΔIC50, the stronger the combination response. SW620, SW837, SNU-81 and LS-1034 are all MSS and KRAS-TP53 double mutant colon cancer cell lines.

The target in another data set is T1, CHEK1 (Homo sapiens, UniProt O14757).
T1 sequence (O14757 1-476): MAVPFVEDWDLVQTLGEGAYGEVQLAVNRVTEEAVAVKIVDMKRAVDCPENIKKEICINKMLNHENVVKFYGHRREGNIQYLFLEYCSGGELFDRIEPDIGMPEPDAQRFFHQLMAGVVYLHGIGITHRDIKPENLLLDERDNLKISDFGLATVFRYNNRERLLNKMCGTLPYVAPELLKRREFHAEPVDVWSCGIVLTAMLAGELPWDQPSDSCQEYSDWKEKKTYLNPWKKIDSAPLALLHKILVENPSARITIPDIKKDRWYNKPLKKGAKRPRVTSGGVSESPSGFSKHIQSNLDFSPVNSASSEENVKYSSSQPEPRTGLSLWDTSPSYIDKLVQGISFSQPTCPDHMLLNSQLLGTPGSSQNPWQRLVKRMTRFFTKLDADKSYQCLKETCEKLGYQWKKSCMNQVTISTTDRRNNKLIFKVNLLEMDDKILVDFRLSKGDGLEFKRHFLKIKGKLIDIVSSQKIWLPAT
The following applies: assay format not stated; read-out: IC50 (CHEK1 inhibitor); cited from earlier work.

For the next data set, the system named is LoVo cells. The following applies: cited from earlier work.
Another data set deals with HT-29 cells. The following applies: cited from earlier work.
Data set [3] deals with colon cancer cell lines (CL-11, SNU-81 and SW837). Briefly: 7x7 matrix combination screen with SN-38, CellTiter-Glo 72 h, Bliss window and HSA window. Type of data set: cell-based. Particulars: MSS and KRAS/TP53 double mutant cell lines. Here is the method:
Viability was measured after 72 h of drug treatment using CellTiter-Glo reagent. Single-agent and combination viability measurements were fitted per cell line and multiple parameters derived including single agent values and a range of synergy scores. […] The “Bliss window” was reported as the highest mean Bliss excess value measured across the 25 possible 3×3 submatrices, or ‘windows’, across the 7×7 dose matrix. […] The “HSA window” was reported as the highest mean HSA excess value measured across the 25 possible 3×3 submatrices, or ‘windows’, across the 7×7 dose matrix.

The test system of the next data set is SNU-81 cells. Briefly: SN-38 dose response after siRNA transfection, viability (CTG). The following applies: for IC50: SN-38 added after 30 h, viability 72 h later. Type of data set: cell-based. Here is the method: (§1) For siRNA experiments, SW837 and SNU-81 cells (8,000 and 16,000 cells per well, respectively) were reverse transfected with siRNAs of a non-targeting pool as negative control (siNT; Dharmacon, D-001810-10-5), polo-like kinase 1 (PLK1) pool as positive control (Dharmacon, L-003290-00-0010), CHEK1 pool (Dharmacon, L-003255-00-0005) or four individual CHEK1 siRNAs (LQ-003255-00-0005), and CHEK2 pool (Dharmacon, L-003256-00-0005) using lipofectamine RNAiMax (Thermofisher). After 30 h, 0.025 µM or a dose range of 0.001-9 µM SN-38 or DMSO were added and viability was measured 72 h later with CTG. Signal was normalised to siNT+DMSO controls. […] FIGS. 4a and 4c confirm that the effect of the TOP1+CHEK combination is primarily mediated through inhibition of CHEK1.
(§2) SW837 and SNU-81 cells (8,000 and 16,000 cells per well, respectively) were reverse transfected with siRNAs of a non-targeting pool as negative control (siNT; Dharmacon, D-001810-10-5), CHEK1 pool (Dharmacon, L-003255-00-0005) or CHEK2 pool (Dharmacon, L-003256-00-0005) using lipofectamine RNAiMax (Thermofisher). After 30 h, a dose range of 0.001-9 µM SN-38 or DMSO were added and viability was measured 72 h later with CTG. Signal was normalised to siNT+DMSO controls. Mean±SD of three independent replicates.

The subject of the next data set is SW837 cells. The data set is described as above. The following applies: for IC50: SN-38 added after 30 h, viability 72 h later. The class given is cell-based. As to the method:
as §1, §2

The target in data set [4] is ataxia telangiectasia and Rad3 related (ATR) kinase (Homo sapiens, UniProt Q13535). Particulars: cited from earlier work.
The subject of data set [5] is ATR-driven phosphorylated CHEK1 (P-CHEK1) phosphorylation. The following applies: cell-free assay; cited from earlier work.
The conditions of data set [6]: Phase 1 clinical trials; cited from earlier work.

Several values for one entry are separate records, joined by “and”; a condition that tells them apart may be missing. Equal entries are not always repeated. Where two headings read alike, the source gives them in different places.

Sequence of ataxia telangiectasia and Rad3 related (ATR) kinase (Q13535 whole entry): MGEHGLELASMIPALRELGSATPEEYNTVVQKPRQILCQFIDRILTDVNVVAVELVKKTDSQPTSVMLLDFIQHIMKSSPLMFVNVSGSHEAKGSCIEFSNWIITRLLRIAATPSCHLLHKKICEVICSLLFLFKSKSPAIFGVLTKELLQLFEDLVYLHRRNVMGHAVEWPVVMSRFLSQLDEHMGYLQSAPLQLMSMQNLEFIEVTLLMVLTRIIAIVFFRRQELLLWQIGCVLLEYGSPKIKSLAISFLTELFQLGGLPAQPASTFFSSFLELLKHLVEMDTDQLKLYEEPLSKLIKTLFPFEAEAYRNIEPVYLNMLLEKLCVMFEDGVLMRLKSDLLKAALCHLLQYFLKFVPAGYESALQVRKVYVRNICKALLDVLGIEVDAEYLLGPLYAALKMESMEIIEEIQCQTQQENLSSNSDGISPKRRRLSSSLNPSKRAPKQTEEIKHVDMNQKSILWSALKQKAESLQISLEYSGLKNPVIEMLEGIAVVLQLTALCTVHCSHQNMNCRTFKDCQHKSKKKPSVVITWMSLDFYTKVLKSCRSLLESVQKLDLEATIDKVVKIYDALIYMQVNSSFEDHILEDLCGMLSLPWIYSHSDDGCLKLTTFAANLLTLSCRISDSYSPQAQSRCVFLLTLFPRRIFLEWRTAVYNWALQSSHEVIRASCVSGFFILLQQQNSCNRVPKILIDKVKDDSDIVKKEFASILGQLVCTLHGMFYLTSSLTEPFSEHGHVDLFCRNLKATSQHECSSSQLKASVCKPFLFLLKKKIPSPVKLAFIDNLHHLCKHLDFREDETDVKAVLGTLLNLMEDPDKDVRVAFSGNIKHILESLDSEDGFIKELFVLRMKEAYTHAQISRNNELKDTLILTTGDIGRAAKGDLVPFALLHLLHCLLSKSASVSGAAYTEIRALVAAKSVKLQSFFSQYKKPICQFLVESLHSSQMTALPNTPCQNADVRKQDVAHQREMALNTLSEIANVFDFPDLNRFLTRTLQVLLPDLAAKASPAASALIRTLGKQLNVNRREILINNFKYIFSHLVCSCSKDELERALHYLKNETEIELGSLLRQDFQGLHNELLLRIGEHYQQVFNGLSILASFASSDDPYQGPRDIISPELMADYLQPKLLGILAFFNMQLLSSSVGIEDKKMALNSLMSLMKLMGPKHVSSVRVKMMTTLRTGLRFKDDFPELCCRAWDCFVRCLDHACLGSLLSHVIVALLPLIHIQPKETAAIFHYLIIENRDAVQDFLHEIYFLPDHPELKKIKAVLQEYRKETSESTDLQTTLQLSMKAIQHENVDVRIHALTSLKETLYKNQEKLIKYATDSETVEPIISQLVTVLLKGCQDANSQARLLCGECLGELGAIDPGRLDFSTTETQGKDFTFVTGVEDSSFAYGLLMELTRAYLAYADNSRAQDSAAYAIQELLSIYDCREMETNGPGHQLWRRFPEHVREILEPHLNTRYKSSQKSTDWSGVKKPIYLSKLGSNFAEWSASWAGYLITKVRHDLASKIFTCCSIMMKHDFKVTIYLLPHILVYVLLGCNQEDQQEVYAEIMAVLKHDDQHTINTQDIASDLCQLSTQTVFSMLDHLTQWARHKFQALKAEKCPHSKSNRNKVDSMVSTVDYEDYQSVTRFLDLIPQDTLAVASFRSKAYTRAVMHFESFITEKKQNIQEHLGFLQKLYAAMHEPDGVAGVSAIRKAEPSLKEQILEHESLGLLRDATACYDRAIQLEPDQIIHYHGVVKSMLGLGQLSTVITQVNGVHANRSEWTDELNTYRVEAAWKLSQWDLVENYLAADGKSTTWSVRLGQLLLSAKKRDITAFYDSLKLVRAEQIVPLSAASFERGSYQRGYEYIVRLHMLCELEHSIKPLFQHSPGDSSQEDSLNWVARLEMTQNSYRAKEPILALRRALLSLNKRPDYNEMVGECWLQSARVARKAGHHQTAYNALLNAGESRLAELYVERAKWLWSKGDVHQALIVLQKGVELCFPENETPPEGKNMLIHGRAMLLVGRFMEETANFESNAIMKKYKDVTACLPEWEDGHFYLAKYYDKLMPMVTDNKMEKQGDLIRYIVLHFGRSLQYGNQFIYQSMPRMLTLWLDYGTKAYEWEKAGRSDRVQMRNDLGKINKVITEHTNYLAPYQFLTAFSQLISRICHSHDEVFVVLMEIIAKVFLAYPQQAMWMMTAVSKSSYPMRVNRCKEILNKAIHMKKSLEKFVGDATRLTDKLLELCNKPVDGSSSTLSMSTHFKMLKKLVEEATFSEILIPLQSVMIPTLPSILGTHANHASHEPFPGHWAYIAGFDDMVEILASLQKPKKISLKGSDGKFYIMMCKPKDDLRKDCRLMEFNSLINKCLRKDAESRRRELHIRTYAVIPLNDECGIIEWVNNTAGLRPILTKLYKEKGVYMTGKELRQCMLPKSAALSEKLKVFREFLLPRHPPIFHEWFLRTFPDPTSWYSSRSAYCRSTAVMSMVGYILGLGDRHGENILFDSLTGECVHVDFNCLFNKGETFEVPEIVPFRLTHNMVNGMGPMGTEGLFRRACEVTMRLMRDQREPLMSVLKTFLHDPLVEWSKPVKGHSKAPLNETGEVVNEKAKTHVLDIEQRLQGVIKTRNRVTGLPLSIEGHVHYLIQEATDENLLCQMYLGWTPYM
Sequence of ataxia telangiectasia and Rad3 related (ATR) kinase (Q8WXE1 whole entry partner): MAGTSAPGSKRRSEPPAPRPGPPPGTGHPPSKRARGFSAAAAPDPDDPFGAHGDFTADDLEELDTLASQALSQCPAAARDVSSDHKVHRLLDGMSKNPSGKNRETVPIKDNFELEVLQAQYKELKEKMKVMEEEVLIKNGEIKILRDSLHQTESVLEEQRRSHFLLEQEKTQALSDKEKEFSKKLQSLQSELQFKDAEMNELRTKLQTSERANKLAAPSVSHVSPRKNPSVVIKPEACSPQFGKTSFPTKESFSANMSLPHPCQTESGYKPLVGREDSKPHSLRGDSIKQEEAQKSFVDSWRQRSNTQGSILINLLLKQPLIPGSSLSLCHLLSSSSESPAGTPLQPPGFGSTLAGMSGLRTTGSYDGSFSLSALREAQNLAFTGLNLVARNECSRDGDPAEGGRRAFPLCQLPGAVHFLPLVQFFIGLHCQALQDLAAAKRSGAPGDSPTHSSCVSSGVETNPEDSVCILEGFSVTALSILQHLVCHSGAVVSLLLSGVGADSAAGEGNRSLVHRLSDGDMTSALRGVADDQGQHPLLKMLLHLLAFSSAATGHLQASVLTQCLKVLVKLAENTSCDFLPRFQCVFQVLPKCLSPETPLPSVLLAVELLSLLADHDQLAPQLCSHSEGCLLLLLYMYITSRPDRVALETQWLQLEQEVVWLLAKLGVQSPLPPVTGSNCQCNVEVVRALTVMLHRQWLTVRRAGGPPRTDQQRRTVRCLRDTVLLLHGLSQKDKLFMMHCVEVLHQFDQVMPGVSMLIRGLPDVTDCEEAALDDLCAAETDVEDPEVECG

Take `NC(=O)Nc1cc(-c2cccc(F)c2)sc1C(=O)N[C@H]1CCCNC1` [AZD7762, (S)-5-(3-Fluorophenyl)-N-(piperidin-3-yl)-3-ureidothiophene-2-carboxamide]: in data set [1] (AZD7762 = Anchor), the “synergy and activity rate in combination with 5-FU (DNA antimetab.)” value came out at 26%; the “synergy and activity rate in combination with Oxaliplatin (DNA alkyl.)” value is reported as 0%; the “synergy and activity rate in combination with Vinorelbine (Microtub.)” value worked out at 0%. In [1] (AZD7762 = Library), the “synergy and activity rate in combination with 5-FU (DNA antimetab.)” value was 28%; the “synergy and activity rate in combination with Oxaliplatin (DNA alkyl.)” value was 2%; the “synergy and activity rate in combination with Vinorelbine (Microtub.)” value is recorded as 4%.

With `COc1cc2nc(-c3cc(F)ccc3O)nc(N[C@@H]3CNC[C@H]3C(C)(C)O)c2cc1OC` [CCT241533], the “median ΔEmax (shift in efficacy over Bliss)” value in data set [2] was “did not”.

As to `N[C@@H]1CCCN(c2c(Br)cnc3[nH]cc(NC(=O)C4CC4)c23)C1` [GDC-0575, N-[4-[(3R)-3-amino-1-piperidyl]-5-bromo-1H-pyrrolo[2,3-b]pyridin-3-yl]cyclopropanecarboxamide], the IC50 at CHEK1 was 1.2 nM.

Regarding `CCc1c2c(nc3ccc(OC(=O)N4CCC(N5CCCCC5)CC4)cc13)-c1cc3c(c(=O)n1C2)COC(=O)[C@]3(O)CC` [Irinotecan, [(19S)-10,19-diethyl-19-hydroxy-14,18-dioxo-17-oxa-3,13-diazapentacyclo[11.8.0.0^2.11.0^4.9.0^15,20]henicosa-1 (21),2,4(9),5,7,10,15(20)-heptaen-7-yl] 4-(1-piperidyl) piperidine-1-carboxylate], the IC50 is 15.8 µM with LoVo cells and 5.17 µM with HT-29 cells.

As for `Cn1cc(-c2cnn3c(N)c(Br)c([C@@H]4CCCNC4)nc23)cn1` [MK-8776, 6-bromo-3-(1-methyl-1H-pyrazol-4-yl)-5-[(3R)-piperidin-3-yl]pyrazolo[1,5-a]pyrimidin-7-amine], the “synergy (Bliss window and HSA window) in combination with SN-38” value (“synergy (Bliss window and HSA window)” below) in data set [3] was “high”.

Turning to `COc1cccc(OCCCN)c1-c1cc(Nc2cnc(C#N)cn2)n[nH]1` [Prexasertib, 5-[[5-[2-(3-aminopropoxy)-6-methoxyphenyl]-1H-pyrazol-3-yl]amino]pyrazine-2-carbonitrile], the “synergy (Bliss window and HSA window)” value in [3] is “high”.

Regarding `C[C@H](CN(C)C)Oc1nc(Nc2cc3cccc(Cl)c3cn2)cnc1C#N` [SAR-020106, 5-(8-chloroisoquinolin-3-ylamino)-3-((R)-1-(dimethylamino)propan-2-yloxy) pyrazine-2-carbonitrile], the “synergy (Bliss window and HSA window)” value in data set [3] is reported as “high”.

On to `CCc1c2c(nc3ccc(O)cc13)-c1cc3c(c(=O)n1C2)COC(=O)[C@]3(O)CC` [SN-38, (19S)-10,19-diethyl-7,19-dihydroxy-17-oxa-3,13-diazapentacyclo[11.8.0.0^2.11.0^4.9.0^15,20]henicosa-1(21),2,4(9),5,7,10,15(20)-heptaene-14,18-dione], for which the IC50 was 84.4 nM and 84 nM in the data set on SNU-81 cells (CHEK1 siRNA pool, read-out: IC50 in SNU-81, siCHEK1); 715 nM in the data set on SNU-81 cells (CHEK2 siRNA pool, read-out: IC50 in SNU-81, siCHEK2); 611 nM in the data set on SNU-81 cells (non-targeting siRNA pool, read-out: IC50 in SNU-81, siNT); 0.7 nM in the data set on SW837 cells (CHEK1 siRNA pool, read-out: IC50 in SW837, siCHEK1); 67 nM in the data set with SW837 cells (CHEK2 siRNA pool, read-out: IC50 in SW837, siCHEK2); 0.69 nM in the data set on SW837 cells (Homo sapiens, SW837, CHEK1 siRNA pool, read-out: IC50 in SW837, siCHEK1). In addition, the IC50 with SW837 cells (Homo sapiens, SW837, CHEK2 siRNA pool, read-out: IC50 in SW837, siCHEK2) was determined as 66.6 nM; in the data set on SW837 cells (Homo sapiens, SW837, non-targeting siRNA pool, read-out: IC50 in SW837, siNT), 84.4 nM; in the data set on SW837 cells (non-targeting siRNA pool, read-out: IC50 in SW837, siNT), 84 nM. Further, the “shift in IC50 of SN-38 on addition of siCHEK1” value with SNU-81 cells (SNU-81, siCHEK1 vs siNT) amounted to 7.2 fold; in the data set with SW837 cells (SW837, siCHEK1 vs siNT) it was 120 fold.

For `Nc1nn2cc(F)cnc2c1C(=O)Nc1cncc(F)c1N1CCC(C(=O)N2CCN(C3COC3)CC2)CC1` [VX-803, 2-amino-6-fluoro-N-[5-fluoro-4-[4-[4-(oxetan-3-yl)piperazine-1-carbonyl]-1-piperidyl]-3-pyridyl]pyrazolo[1,5-a]pyrimidine-3-carboxamide], in data set [4], the “Ki ATR kinase” value is reported as below 150 pM. For the same compound, the IC50 in data set [5] is 8 nM.

In the case of `Cc1cnc(NC(=O)Nc2cc(Br)c(C)cc2OC[C@@H]2CNCCO2)cn1` [rabusertib, 1-[5-bromo-4-methyl-2-[[(2S)-morpholin-2-yl]methoxy]phenyl]-3-(5-methylpyrazin-2-yl) urea], the “synergy (Bliss window and HSA window)” value in [3] is listed as “high”. In addition, the safety profile result in data set [6] is “acceptable safety profile”.
